Reference: US11442059B2, “Method for treating a chronic itch condition by administering small molecule MrgprX4 antagonists” (The Johns Hopkins University, priority 2017, dated 2022)
Several values for one entry are separate records, joined by “and”; a condition that tells them apart may be missing. Identical values can stand only once. Blank lines part the entries; values can stand above or below the compound they belong to. No end group written: not given here.

What was measured:
[1] = test system: DRG neurons; assay: Calcium imaging of dissociated DRG neurons; format: cell-based, mouse; details: Venn diagram FIG. 30A; Overlap=13
[2] = biological target: T1, MrgprA1 (Mus musculus, UniProt Q91WW5); assay: Microscale thermophoresis binding assay, MRGPRA1
T1 construct: expressed in transfected cells; whole cells or crude membrane fraction
T1 sequence (Q91WW5 1-304): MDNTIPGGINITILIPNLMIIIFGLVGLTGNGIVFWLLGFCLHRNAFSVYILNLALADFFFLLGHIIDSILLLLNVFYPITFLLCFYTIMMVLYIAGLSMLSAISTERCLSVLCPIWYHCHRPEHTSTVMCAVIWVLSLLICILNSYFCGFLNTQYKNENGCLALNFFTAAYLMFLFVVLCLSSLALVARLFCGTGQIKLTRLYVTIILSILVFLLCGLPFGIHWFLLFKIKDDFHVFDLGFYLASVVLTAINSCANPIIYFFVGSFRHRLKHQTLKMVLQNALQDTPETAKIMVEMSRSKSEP
Protocol: (§1) Binding isotherms for MRGPRA1, MRGPRX4, and MRGRPC11 towards various ligands were determined by microscale thermophoresis with the NanoTemper monolith NT.115 instrument^27. Ligands were pre-incubated with 10 μM of the GFP-tagged receptor of interest for 5 minutes at room temperature in binding buffer (20 mM Tris and 150 mM NaCl at pH 8.8). Receptors were crudely purified as a membrane fraction from cells stably expressing the receptor^45. Haem metabolites were freshly dissolved in 0.1 M NaOH in dim light and then diluted into assay buffer. Lyophilized BAMS-22 was dissolved in binding buffer. The pH of each ligand was evaluated prior to incubation with a receptor. Samples were loaded into NT.115 Hydrophobic-Treated Capillaries from NanoTemper. Microscale thermophoretic experiments were executed using 20% LED power and 15% MST power. KDs were calculated using the law of mass action with data from three independent experiments. Binding between bilirubin and receptors was evaluated purely thermophoretically, whereas binding between BAMS-22 and MRGPRC11 was evaluated by T-Jump. Samples with dramatic deviations in initial fluorescence were excluded.

[3] = biological target: T2, MRGPRX4 (Homo sapiens, UniProt Q96LA9); assay: Microscale thermophoresis binding assay, MRGPRX4; set-up: expressed in transfected cells; whole cells or crude membrane fraction
Protocol: as §1

[4] = biological target: T1, MrgprA1; assay: FLIPR calcium assay (Flexstation3), HEK cells stably expressing MrgprA1; format: cell-based; details: HEK cells, FLIPR calcium dye, FIG. 18A
Protocol: (§2) EC50s were calculated using HEK cells stably expressing either MrgprA1 or MrgprX4. Cells were loaded with FLIPR calcium imaging dye, and a Flexstation3 machine (Molecular Devices) was used for reading changes in fluorescence. Wells were run in triplicate, and all values from each plate were normalized to the highest responding well. […] The x-axis depicts a modified logarithmic scale. […] FIG. 18B is a graph depicting the EC50 for MrgprX4 for bilirubin is approximately 3 μM.

[5] = biological target: T1, MrgprA1; assay: Fura 2-AM calcium imaging, EC50 and IC50 determinations, MRGPRA1 HEK293 cells; format: cell-based; details: HEK293 cells, Fura 2-AM; interval [96, 220]; read-out: EC50 calcium response MRGPRA1
Protocol: (§3) Cells were imaged in calcium imaging buffer (CIB; 10 mM HEPES, 1.2 mM NaHCO3, 130 mM NaCl, 3 mM KCl, 2.5 mM CaCl2, 0.6 mM MgCl2, 20 mM glucose, and 20 mM sucrose at pH 7.4 and 290-300 mOsm). To monitor changes in intracellular [Ca^2+] ([Ca^2+]i), cells were loaded with either Fura 2-AM (HEK293 cells) or Fluo 4-AM (DRG neurons and mast cells) for 30 min in the dark at 37° C. in CIB just prior to imaging. With Fura 2-AM, emission at 510 nm was monitored from excitation at both 340 nm and 380 nm. With Fluo 4-AM, emission at 520 nm was monitored from excitation at 488 nm. Cells were identified as responding if the intracellular [Ca^2+] rose by either 50% compared to baseline or 50% compared to the [Ca^2+]i change assayed during addition of 50 mM KCl (neurons only). Damaged, detached, high-baseline, and motion-activated cells were excluded from analysis.
(§4) In initial screens, HEK293 cells stably expressing the murine G-protein alpha-subunit Gα15, a unique Gα protein that non-selectively couples a large variety of GPCRs to phospholipase C^30, were plated on poly-D-lysine-coated coverslips and transiently transfected with constructs encoding the MRGRPR of interest. 12-24 h later, cells were loaded with the Fura 2-AM. Unless otherwise specified, compounds were perfused into the imaging chamber for approximately thirty seconds after a baseline period was established. Response was then monitored at 5 s intervals for an additional 60 s.
(§5) HEK293 cells stably expressing either MRGPRA1, MRGPRX4, and MRGRPC11 were seeded in poly-D-lysine-coated 96-well plates at 10,000 cells/well. Cells were loaded with Fura 2-AM, washed twice, and maintained in CIB. Haem metabolites were freshly dissolved in DMSO in dim light and then diluted into a buffer comprised of 20 mM Tris and 150 mM NaCl at pH 8.8. Potential changes in pH were evaluated prior to each experiment. EC50 values were determined from dose-responses performed in triplicate, repeated 2-4 times. To determine potential antagonism by QWF against bilirubin, cells were treated with varying doses of QWF for 1 min in CIB prior to application of agonist.

[6] = test system: mice; assay: Acute itch behaviour after injection (scratching bouts); format: in vivo, mouse; details: bilirubin injection
[7] = biological target: T2, MRGPRX4; assay: Fura 2-AM calcium imaging, EC50 determinations, MRGPRX4 HEK293 cells; format: cell-based; set-up: expressed in transfected cells; whole cells or crude membrane fraction; details: HEK293 cells, Fura 2-AM; interval [44, 87]; read-out: EC50 calcium response MRGPRX4
Protocol: as §3, §4
as §5, with “To determine potential antagonism by QWF against bilirubin, cells were treated with varying doses of QWF for 1 min in CIB prior to application of agonist.” left out

[8] = biological target: T2, MRGPRX4; assay: FLIPR calcium assay (Flexstation3), HEK cells stably expressing MrgprX4; format: cell-based; set-up: expressed in transfected cells; whole cells or crude membrane fraction; details: FLIPR calcium dye, FIG. 18B
Protocol: as §2

[9] = biological target: T3, MRGPRX3 (Homo sapiens, UniProt Q96LB0); assay: Ca2+ response of HEK cells expressing MRGPRX3; format: cell-based
T3 construct: expressed in transfected cells; host or cells: HEK cells

[10] = test system: human keratinocytes; assay: Ca2+ response of primary human keratinocytes; format: cell-based
[11] = test system: MrgprA1, A4, A12, B3, and B6; assay: Ca2+ response of cells expressing other keratinocyte Mrgprs; format: cell-based, mouse
[12] = biological target: T4, MrgprA6 (Mus musculus, UniProt Q91ZC6); assay: Ca2+ response of cells expressing mouse MrgprA6; format: cell-based
T4 construct: expressed in transfected cells; host or cells: HEK293 (transient, pcDNA3.1)
T4 sequence (Q91ZC6 1-301): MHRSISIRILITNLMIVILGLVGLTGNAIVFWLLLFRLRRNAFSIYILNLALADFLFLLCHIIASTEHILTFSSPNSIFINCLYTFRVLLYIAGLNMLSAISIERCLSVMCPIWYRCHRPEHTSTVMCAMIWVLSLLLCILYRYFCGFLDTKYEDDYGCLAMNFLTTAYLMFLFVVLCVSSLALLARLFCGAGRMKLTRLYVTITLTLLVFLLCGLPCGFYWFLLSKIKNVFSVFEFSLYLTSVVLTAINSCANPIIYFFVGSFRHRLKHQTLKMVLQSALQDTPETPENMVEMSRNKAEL

T2 sequence (Q96LA9 whole entry): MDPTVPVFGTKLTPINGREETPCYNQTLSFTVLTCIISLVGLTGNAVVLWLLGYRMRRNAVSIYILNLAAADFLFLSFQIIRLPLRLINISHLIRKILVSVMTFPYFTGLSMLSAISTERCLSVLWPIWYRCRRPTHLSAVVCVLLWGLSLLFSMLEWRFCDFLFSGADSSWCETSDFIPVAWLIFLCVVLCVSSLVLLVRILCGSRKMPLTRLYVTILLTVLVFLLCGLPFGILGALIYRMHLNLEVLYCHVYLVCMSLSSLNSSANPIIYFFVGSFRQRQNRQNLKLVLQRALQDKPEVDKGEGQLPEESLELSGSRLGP
T3 sequence (Q96LB0 whole entry): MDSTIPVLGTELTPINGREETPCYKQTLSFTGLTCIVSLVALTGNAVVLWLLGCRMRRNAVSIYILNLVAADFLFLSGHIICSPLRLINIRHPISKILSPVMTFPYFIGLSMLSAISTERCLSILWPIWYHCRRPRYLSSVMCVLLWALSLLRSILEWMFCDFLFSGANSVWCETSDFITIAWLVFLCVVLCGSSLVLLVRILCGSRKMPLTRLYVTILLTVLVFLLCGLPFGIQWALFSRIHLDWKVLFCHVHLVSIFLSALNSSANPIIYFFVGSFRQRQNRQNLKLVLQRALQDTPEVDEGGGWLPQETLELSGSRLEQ

Kd [2]: 92.9 ± 15 µM
Kd [3]: 54.4 ± 13 µM
EC50 [4]: ~49 µM
EC50 [5]: 146 µM
EC50 [7]: 61.9 µM
EC50 [8]: ~3 µM and 2 µM
Compound: C=CC1=C(C)/C(=C/c2[nH]c(Cc3[nH]c(/C=C4\NC(=O)C(C)=C4C=C)c(C)c3CCC(=O)O)c(CCC(=O)O)c2C)NC1=O [bilirubin, bilirubin IXa]
total neurons activated by the compound alone [1]: 7
scratching of Cluster−/− animals less than wild type [6]: approximately 75%

Ca2+ response of MRGPRX3 HEK cells [9]: robust Ca^2+ response
Compound: hBD3: synthetic human Beta-defensin 3, antimicrobial peptide (GIINTLQKYYCRVRGGRCAVLSCLPKEEQIGKCSTRGRKCCRRKK; ends and bridges not checked; cysteine pairing not given here)
percentage of keratinocytes that responded ([10]; primary human keratinocytes after MRGPRX3 siRNA knock down): < 20%
percentage of keratinocytes that responded ([10]; primary human keratinocytes, control): > 80%

activation of MrgprA6 [12]: strongly activated
Compound: mBD14: mouse Beta-Defensin-14, mouse homologue of hBD3 (FLPKTLRKFFCRIRGGRCAVLNCLGKEEQIGRCSNSGRKCCRKKK; ends and bridges not checked; cysteine pairing not given here)
response of MrgprA1, A4, A12, B3, and B6 [11]: did not show any response
